Laboratory results published in patent EP3917907B1, “MODULATORS OF POTASSIUM ION CHANNELS AND USES THEREOF” (Universitá Degli Studi Di Salerno, priority 2019, dated 2020).

Assays:
[1] = Solution stability (HPLC, extracellular solution, ambient temperature); format: physicochemical; conditions: percentage of degradation after 6 h at ambient temperature; 100 ppm in extracellular solution pH 7.4
Outline: (§1)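 Analyte diluted from 1 mg/mL DMSO stock to 100 ppm in extracellular buffer (NaCl, CaCl2, KCl, MgCl2, glucose, HEPES, pH 7.4) and either kept at ambient temperature or irradiated with a solar simulator, each for 6 h. C18 RP-HPLC (40°C) peak areas at 0 and 6 h give % degradation = (Pa0−Pa6)/Pa0 ×100.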

Kv7.4 = target: T1, Kv7.4 (Homo sapiens, UniProt P56696); experiment: Whole-cell patch-clamp on CHO cells transiently expressing Kv7.4; format: cell-based; conditions: shift in ramp-voltage (ΔV) at 20% of maximal current, 0.01-10 µM
T1 construct: expressed in transfected cells; host or cells: CHO cells (ATCC CRL-9618), transient transfection, pcDNA3.1(+)
Protocol: (§2) According to the experimental protocol, these plasmids were expressed individually or in combination (in particular of Kv7.2 and Kv7.3), together with a plasmid-expressing enhanced green fluorescent protein (Clontech, Palo Alto, CA) used as a transfection marker. Total cDNA in the transfection mixture was kept at 4 µg. CHO cells were grown in 100-mm plastic Petri dishes in Dulbecco's modified Eagle's medium containing 10% fetal bovine serum, nonessential amino acids (0.1 mM), penicillin (50 U/ml), and streptomycin ([…]) in a humidified atmosphere at 37°C with 5% CO2. The cells were plated on glass coverslips coated with poly-L-lysine, and transfected one day after plating with the appropriate cDNA using Lipofectamine 2000 (Life Technologies), according to the manufacturer's protocol.
(§3) Currents from CHO cells were recorded at room temperature (20-22°C) 24 hours after trasfection using the whole-cell configuration of the patch-clamp technique, with glass micropipettes of 3-5 MΩ resistance. During the recording, constant perfusion of extracellular solution was maintained. […] Currents were recorded using an Axopatch-200A amplifier, filtered at 5 kHz, and digitized using a DigiData 1440A (Molecular Devices). […] The effects of drugs were expressed as shift in the ramp-voltage (ΔV) calculated at 20% of the maximal current (Miceli et al, Proc Natl Acad Sci U S A. 2013, 110(11):4386-91). […]

Kv7.2 [2] = experiment: Whole-cell patch-clamp on CHO cells transiently expressing Kv7.2; format: cell-based, human; conditions: ratio of EC50 values Kv7.3/Kv7.2
Kv7.2 [3] = target: T2, Kv7.2 (Homo sapiens, UniProt O43526); experiment: as above; format: cell-based; conditions: for EC50: Kv7.2, shift in ramp-voltage (ΔV) at 20% of maximal current, 0.01-10 µM; for Idrug/Ictl at 0 mV: ratio of ramp-evoked Kv7.2 current amplitude in presence and absence of drug at 0 mV; for Idrug/Ictl at 0 mV / Idrug/Ictl at -40 mV: CHO cells, mean±SEM, >1 activating, <1 inhibiting; for Idrug/Ictl at -40 mV: ratio of ramp-evoked Kv7.2 current amplitude in presence and absence of drug at -40 mV
T2 construct: expressed in transfected cells; host or cells: CHO cells (ATCC CRL-9618), transient transfection, pcDNA3.1(+)

Kv7.2/7.3 = target: T3, Kv7.2/7.3 (Homo sapiens, UniProt O43525+O43526); experiment: Whole-cell patch-clamp on CHO cells co-expressing Kv7.2 and Kv7.3; format: cell-based; conditions: for EC50: Kv7.2/7.3, shift in ramp-voltage (ΔV) at 20% of maximal current, 0.01-10 µM
T3 construct: expressed in transfected cells; host or cells: CHO cells (ATCC CRL-9618), transient co-transfection, pcDNA3.1(+)
Protocol: as §2
(§4) Currents from CHO cells were recorded at room temperature (20-22°C) 24 hours after trasfection using the whole-cell configuration of the patch-clamp technique, with glass micropipettes of 3-5 MΩ resistance. During the recording, constant perfusion of extracellular solution was maintained. The extracellular solution contained (in mM): 138 NaCl, 2 CaCl2, 5.4 KCl, 1 MgCl2, 10 glucose, and 10 HEPES, at pH 7.4, adjusted with NaOH. The pipette (intracellular) solution contained (in mM): 140 KCl, 2 MgCl2, 10 EGTA, 10 HEPES, 5 Mg^2+-ATP, at pH 7.3-7.4, adjusted with KOH. Currents were recorded using an Axopatch-200A amplifier, filtered at 5 kHz, and digitized using a DigiData 1440A (Molecular Devices). The pCLAMP software (version 10.2, Molecular Devices) was used for data acquisition and analysis. To evaluate the activity of exemplary compounds on Kv7.2 (see Table 1), as well as on Kv7.1, Kv7.2/7.3, Kv7.3 and Kv7.4 channels for selected compounds (see Table 2), the cells were clamped at -80 mV and currents were elicited by 3-s voltage ramps from -80 mV to +20 mV in the presence and absence of each compound. […] The effects of drugs were expressed as shift in the ramp-voltage (ΔV) calculated at 20% of the maximal current (Miceli et al, Proc Natl Acad Sci U S A. 2013, 110(11):4386-91). Curves were fitted using the following equation: y=max/(1+x/EC50)n, where x is the drug concentration, n is the Hill coefficient and max is the maximal value achieved, as previously described (Ambrosino et al, Br J Pharmacol. 2013, 168(6):1430-1444). Data analysis and fit were performed using Sigmaplot (version 12.3).

Kv7.2 W236L = target: T4, Kv7.2 W236L (Homo sapiens, UniProt O43526, W236L); experiment: Whole-cell patch-clamp on CHO cells expressing Kv7.2 W236L mutant channels; format: cell-based; conditions: 10 µM
T4 construct: expressed in transfected cells; host or cells: CHO cells (ATCC CRL-9618), transient transfection, pcDNA3.1(+)
Protocol: as §2, §3

[4] = Photostability (HPLC, solar simulator irradiation); format: physicochemical; conditions: for Photostability: percentage of degradation after 6 h irradiation with solar simulator, 100 ppm in extracellular solution pH 7.4
Outline: as §1

Kv7.1 = target: T5, Kv7.1 (Homo sapiens, UniProt P51787); experiment: Whole-cell patch-clamp on CHO cells transiently expressing Kv7.1; format: cell-based; conditions: shift in ramp-voltage (ΔV) at 20% of maximal current, 0.01-10 µM
T5 construct: expressed in transfected cells; host or cells: CHO cells (ATCC CRL-9618), transient transfection, pcDNA3.1(+)
Protocol: as §2
as §4, with “Curves were fitted using the following equation: y=max/(1+x/EC50)n, where x is the drug concentration, n is the Hill coefficient and max is the maximal value achieved, as previously described (Ambrosino et al, Br J Pharmacol. 2013, 168(6):1430-1444). Data analysis and fit were performed using Sigmaplot (version 12.3).” left out

Kv7.3 = target: T6, Kv7.3 (Homo sapiens, UniProt O43525); experiment: Whole-cell patch-clamp on CHO cells transiently expressing Kv7.3; format: cell-based; conditions: shift in ramp-voltage (ΔV) at 20% of maximal current, 0.01-10 µM
T6 construct: expressed in transfected cells; host or cells: CHO cells (ATCC CRL-9618), transient transfection, pcDNA3.1(+)
Protocol: as §2, §3

[5] = cited from earlier work

Row | SMILES | Solution stability [1] | EC50 (Kv7.4) | potency in activating Kv7.2 compared to Kv7.3 homomers (Kv7.2 [2]) | EC50 (Kv7.2 [3]) | Idrug/Ictl at 0 mV (Kv7.2 [3]) | Idrug/Ictl at -40 mV (Kv7.2 [3]) | EC50 (Kv7.2/7.3) | potency relative to retigabine in increasing Kv7.2/3 currents (Kv7.2/7.3; from EC50 values of Table 2) | ratio between current amplitude in the presence and absence of the drug at -40 mV (Kv7.2 W236L) | Photostability [4] | EC50 (Kv7.1) | EC50 (Kv7.3) | drug degraded after exposure to light ([4]; after 6 hours of exposure to light) | fast absorption after oral administration (time after administration) [5]
1 | CCCCCCC(=O)Nc1ccc2c(ccn2Cc2ccc(C(F)(F)F)cc2)c1 [N-(1-(4-(trifluoromethyl)benzyl)-1H-indol-5-yl)heptanamide] | A (degradation lower than 20%) | 100 ± 20 nM | about 130 fold | 80 ± 40 nM | 3.24±0.18 | 9.34±0.82 | 210 ± 140 nM | eight times more potent than retigabine | 1.3±0.3 | A (degradation lower than 20%) | Inactive | 10500 ± 6000 nM | – | –
2 | CCOC(=O)Nc1ccc(NCc2ccc(F)cc2)cc1N [Retigabine, reference compound] | A (degradation lower than 20%) | 1980 ± 840 nM | 4 fold | 930 ± 430 nM | 1.95±0.12 | 6.20±1.03 | 1720 ± 410 nM | – | 1.2±0.1 | C (degradation > 40%) | Inactive | 3900 ± 1700 nM | > 40% | 1.5 to 2.0 h
